Data as given in patent US9675591B2, “Methods for treating seizure disorders and pain” (THE REGENTS OF THE UNIVERSITY OF CALIFORNIA, priority 2013, dated 2017).
Values joined by “and” are separate entries in the source; they are usually repeats but may differ in a detail not shown here. Equal values may be shown once. Read-outs that look alike come from different tables or passages of the source.

Key:
Nav1.1 = Nav1.1 (Homo sapiens (Human), UniProt P35498); test: Voltage-clamp, Nav1.1 in HEK-293 cells; type: cell-based; details: holding potential -90 mV, 0.1 Hz; read-out: EC50 or IC50, Nav1.1
Method: (§1) All experiments were conducted at room temperature (22-24° C.) with an EPC-10 amplifier and Pulse software (HEKA, Lambrecht/Pfalz, Germany) in the whole-cell mode of the patch-clamp technique. Human embryonic kidney (HEK)-293 cell lines stably expressing hNav1.1, hNav1.5, hNav1.7 channels (generously provided by Dr. Christopher Lossin, University of California Davis), hNav1.4 (Frank Lehmann-Horn, University of Ulm), or hKv2.1 channels (James Trimmer, University of California Davis) were bathed in extracellular solution containing (in mM): 160 NaCl; 4.5 KCl; 1 MgCl2; 2 CaCl2; 10 HEPES [pH was adjusted to 7.4 using NaOH (310 mOsm)]. Pipettes were filled with intracellular solution containing (in mM): 145 KF; 2 MgCl2; 10 ethylene glycol tetraacetic acid; 10 HEPES (pH adjusted to 7.2 with KOH; 300 mOsm). Neuroblastoma N1E-115 cells (ATCC, Manassa, Va., USA) expressing Nav1.2 were patched with a CsF internal solution consisting of (in mM): 10 NaF; 110 CsF; 20 CsCl; 2 ethylene glycol tetraacetic acid; 10 HEPES (CsOH to pH 7.35; 300 mOsm). All pipette tip resistances were 2-4 MΩ. Series resistances of 3-10 MΩ were compensated 40-80%. All cells were voltage-clamped to a holding potential of −90 mV unless otherwise specified. The sampling frequency was 5 kHz. Na^+ currents were elicited by 30-ms pulse to 0 mV from −90 mV applied every 10 s. […]

Kv2.1 = Kv2.1 (Homo sapiens (Human), UniProt Q14721); test: Voltage-clamp, Kv2.1 in HEK-293 cells; type: cell-based; details: read-out: EC50 or IC50, Kv2.1
Kv2.1, sequence (Q14721 whole entry): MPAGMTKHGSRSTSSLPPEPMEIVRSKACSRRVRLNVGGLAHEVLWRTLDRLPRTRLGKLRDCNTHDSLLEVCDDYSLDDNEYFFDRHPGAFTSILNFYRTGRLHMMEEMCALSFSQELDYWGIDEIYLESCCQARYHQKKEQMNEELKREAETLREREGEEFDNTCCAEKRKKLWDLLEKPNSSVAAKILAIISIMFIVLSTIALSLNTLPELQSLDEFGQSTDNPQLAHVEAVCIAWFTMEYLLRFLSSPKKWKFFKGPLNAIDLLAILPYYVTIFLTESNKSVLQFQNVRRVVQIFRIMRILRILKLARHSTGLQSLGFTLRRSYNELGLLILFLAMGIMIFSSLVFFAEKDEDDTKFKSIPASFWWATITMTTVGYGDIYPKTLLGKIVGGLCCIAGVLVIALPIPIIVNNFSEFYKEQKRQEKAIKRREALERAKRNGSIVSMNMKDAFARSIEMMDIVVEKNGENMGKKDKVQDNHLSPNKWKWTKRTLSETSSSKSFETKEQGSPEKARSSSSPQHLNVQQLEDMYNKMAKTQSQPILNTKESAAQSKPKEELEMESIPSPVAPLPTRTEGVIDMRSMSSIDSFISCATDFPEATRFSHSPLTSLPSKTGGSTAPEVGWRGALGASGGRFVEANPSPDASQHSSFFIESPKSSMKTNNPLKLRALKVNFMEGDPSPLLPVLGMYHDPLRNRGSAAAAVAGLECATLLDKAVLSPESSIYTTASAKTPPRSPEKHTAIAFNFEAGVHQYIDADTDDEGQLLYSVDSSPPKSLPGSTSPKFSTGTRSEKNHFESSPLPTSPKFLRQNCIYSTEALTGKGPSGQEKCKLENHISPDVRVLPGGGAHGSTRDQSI
Method: as §1

Nav1.5 = Nav1.5 (Homo sapiens (Human), UniProt Q14524); test: Voltage-clamp, Nav1.5 in HEK-293 cells; type: cell-based
Nav1.5, sequence (Q14524 whole entry): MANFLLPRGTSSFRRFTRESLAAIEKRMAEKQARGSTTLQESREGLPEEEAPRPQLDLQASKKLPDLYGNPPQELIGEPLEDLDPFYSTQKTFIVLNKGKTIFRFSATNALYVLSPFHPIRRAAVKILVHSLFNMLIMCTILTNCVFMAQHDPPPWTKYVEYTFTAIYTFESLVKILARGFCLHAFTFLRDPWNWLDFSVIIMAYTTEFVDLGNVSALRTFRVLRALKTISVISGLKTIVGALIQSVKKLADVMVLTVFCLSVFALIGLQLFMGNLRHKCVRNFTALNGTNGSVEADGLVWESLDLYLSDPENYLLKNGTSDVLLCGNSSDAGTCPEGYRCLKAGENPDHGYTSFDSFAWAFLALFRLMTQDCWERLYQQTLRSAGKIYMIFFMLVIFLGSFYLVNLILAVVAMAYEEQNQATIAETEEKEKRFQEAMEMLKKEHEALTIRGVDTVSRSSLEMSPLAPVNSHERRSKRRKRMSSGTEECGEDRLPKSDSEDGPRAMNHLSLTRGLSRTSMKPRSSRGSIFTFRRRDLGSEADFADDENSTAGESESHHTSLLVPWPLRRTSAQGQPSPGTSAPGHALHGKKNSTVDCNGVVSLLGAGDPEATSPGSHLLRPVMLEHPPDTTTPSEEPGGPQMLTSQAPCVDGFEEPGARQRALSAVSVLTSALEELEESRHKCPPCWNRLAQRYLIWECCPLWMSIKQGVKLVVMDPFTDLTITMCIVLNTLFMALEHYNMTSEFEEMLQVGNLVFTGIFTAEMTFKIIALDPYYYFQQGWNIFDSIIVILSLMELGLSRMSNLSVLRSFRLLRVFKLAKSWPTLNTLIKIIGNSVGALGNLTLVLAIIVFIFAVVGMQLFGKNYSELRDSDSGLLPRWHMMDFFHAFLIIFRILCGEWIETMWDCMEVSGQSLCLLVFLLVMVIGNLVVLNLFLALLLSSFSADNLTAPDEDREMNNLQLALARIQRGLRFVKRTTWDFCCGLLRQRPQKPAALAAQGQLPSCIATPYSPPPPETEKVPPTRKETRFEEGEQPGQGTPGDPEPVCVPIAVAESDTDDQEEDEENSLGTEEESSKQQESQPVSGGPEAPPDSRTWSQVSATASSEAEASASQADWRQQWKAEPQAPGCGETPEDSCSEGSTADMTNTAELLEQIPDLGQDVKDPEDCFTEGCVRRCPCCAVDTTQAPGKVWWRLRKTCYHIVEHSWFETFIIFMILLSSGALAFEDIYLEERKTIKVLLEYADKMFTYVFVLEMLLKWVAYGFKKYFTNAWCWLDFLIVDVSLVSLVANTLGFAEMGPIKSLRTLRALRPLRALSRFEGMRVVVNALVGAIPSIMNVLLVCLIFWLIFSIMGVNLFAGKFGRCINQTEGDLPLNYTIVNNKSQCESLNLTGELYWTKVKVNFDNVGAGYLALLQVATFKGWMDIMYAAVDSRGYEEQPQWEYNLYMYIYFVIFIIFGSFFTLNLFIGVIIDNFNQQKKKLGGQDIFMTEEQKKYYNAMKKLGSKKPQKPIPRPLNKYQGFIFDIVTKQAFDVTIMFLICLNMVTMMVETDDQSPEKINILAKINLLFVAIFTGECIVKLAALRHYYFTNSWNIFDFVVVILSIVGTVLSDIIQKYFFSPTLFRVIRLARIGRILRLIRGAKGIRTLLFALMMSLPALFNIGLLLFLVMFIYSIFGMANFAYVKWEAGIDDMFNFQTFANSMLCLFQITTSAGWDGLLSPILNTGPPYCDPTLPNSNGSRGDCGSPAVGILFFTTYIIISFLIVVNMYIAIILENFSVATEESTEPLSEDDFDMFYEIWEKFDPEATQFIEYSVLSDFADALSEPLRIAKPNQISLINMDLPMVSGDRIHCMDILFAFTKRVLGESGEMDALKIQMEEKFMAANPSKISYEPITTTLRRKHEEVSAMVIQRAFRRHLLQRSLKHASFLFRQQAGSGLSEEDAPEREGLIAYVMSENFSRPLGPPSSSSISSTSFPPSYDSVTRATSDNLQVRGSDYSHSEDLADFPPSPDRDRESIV
Method: as §1

MES-induced seizures = test: Maximal electroshock (MES) seizure test, rats (ASP, methylcellulose suspension); type: in vivo; details: for ED50: Rattus norvegicus, read-out: ED50, seizure protection in the MES test
Method: SKA-19 was tested under the auspices of the National Institutes of Health's Anticonvulsant Screening Program (ASP). Experiments were performed in male albino CF (Carworth Farms) No. 1 mice or Sprague-Dawley rats according to the established protocols of the ASP (White et al., 2002). SKA-19 was suspended in 0.5% methylcellulose and administered in a volume that permits accuracy of dosage without excessively contributing to total body fluid (0.01 ml/g body weight for mice and 0.04 ml/10 g body weight for rats).
Animals received an electrical stimulus of 0.2 s duration (50 mA in mice and 150 mA in rat at 60 Hz) delivered via corneal electrodes primed with an electrolyte solution containing 0.5% tetracaine. Animals were restrained by hand and released immediately after stimulation to permit observation of the seizure throughout its entire course. In the initial screens to identify anticonvulsant activity mice were tested at 30 minutes and 4 hours following doses of 3, 10, 30, 100 and 300 mg/kg of SKA-19 and rats tested at time intervals between 0.25 and 4 hours following a standard oral dose of 30 mg/kg. In the subsequent, more quantitative tests at least four doses of SKA-19 (n=8 per dose) were tested at the previously determined time of peak effect (TPE). Abolition of hindlimb tonic extension indicates the test compound's ability to inhibit MES-induced seizure spread. Tonic extension is considered abolished if the hind limbs are not fully extended at 180° with the body.

Nav1.7 = Nav1.7 (Homo sapiens (Human), UniProt Q15858); test: Voltage-clamp, Nav1.7 in HEK-293 cells; type: cell-based
Nav1.7, sequence (Q15858 whole entry): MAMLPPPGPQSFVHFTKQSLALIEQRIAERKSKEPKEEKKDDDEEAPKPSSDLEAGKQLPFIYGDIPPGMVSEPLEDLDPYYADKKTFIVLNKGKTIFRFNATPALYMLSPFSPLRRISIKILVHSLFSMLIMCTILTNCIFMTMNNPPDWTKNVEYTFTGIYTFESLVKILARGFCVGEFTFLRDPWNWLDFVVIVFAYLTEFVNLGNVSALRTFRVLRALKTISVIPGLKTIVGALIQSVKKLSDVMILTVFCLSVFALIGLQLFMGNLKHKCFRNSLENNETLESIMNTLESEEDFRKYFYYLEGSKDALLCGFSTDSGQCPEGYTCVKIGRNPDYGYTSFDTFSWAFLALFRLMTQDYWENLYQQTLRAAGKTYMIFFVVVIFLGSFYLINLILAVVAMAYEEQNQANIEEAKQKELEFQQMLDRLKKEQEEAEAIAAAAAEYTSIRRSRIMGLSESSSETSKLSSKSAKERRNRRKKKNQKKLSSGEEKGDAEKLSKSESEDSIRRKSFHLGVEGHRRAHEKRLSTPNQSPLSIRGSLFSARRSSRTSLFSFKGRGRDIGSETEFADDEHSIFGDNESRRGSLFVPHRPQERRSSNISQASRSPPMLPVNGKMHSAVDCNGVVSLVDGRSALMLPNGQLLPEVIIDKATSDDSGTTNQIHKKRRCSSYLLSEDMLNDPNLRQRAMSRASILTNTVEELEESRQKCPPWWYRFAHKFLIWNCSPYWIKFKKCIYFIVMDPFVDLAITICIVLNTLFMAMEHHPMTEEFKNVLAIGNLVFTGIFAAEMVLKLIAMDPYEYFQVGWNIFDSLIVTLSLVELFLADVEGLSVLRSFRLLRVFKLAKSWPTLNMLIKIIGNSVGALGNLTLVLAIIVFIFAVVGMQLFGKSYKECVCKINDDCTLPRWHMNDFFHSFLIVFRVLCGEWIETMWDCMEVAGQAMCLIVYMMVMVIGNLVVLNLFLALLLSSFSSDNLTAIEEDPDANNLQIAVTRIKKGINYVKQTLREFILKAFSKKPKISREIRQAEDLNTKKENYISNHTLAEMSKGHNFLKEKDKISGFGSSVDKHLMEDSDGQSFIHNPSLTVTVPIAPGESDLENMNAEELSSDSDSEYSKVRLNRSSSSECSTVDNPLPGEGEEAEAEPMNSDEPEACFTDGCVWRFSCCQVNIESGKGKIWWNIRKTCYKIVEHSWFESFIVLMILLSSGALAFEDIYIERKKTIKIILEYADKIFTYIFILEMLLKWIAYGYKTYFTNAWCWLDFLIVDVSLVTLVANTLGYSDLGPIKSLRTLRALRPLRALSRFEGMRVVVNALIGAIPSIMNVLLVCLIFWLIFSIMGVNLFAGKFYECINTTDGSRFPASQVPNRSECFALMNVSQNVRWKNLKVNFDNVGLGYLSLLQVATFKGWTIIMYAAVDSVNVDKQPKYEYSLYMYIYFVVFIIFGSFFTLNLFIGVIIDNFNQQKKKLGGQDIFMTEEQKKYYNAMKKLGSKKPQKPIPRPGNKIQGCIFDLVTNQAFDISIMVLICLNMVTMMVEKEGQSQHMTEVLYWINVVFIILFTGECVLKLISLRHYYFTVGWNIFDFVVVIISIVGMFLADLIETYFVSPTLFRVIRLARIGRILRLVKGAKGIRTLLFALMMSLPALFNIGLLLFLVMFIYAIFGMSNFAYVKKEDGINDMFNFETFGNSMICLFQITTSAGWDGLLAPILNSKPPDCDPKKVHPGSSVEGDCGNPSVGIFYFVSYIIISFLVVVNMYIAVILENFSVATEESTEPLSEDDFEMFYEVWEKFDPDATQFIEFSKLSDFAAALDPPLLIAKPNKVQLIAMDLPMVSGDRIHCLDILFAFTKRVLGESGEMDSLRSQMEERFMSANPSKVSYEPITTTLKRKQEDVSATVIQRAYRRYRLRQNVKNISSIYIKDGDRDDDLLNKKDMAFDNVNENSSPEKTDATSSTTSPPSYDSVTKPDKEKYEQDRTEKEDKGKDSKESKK
Method: as §1

[1] = test system: pentylenetetrazole-induced seizures; test: Subcutaneous Metrazol seizure test (scMET); type: in vivo
Method: A dose of subcutaneous pentylenetetrazole (Metrazole, MET) which induces convulsions in 97% of animals (CD97: 85 mg/kg mice or 56.4 mg/kg rats) was injected into a loose fold of skin at the neck. Animals were placed in isolation cages and observed for 30 min for the occurrence of clonic spasms persisting for at least 5 s.

sound-induced seizures = test: Frings audiogenic seizure (AGS)-susceptible mouse model; type: in vivo, mice; details: ip, 2 h, read-out: ED50, protection from sound induced seizures
Method: Frings audiogenic seizure (AGS)-susceptible mice are genetically susceptible to sound-induced seizures (Frings et al., 1953). A colony of AGS mice is maintained by the ASP at the University of Utah. Groups of 8 female mice (weighing 18-25 g) were treated i.p. with increasing doses of SKA-19. At the TPE in the MES test, mice were exposed to a sound stimulus of 110 decibels (11 KHz) delivered for 20 s.

KCa2.1 = KCa2.1 (Homo sapiens (Human), UniProt Q92952); test: Whole-cell patch-clamp, KCa2.1; type: cell-based
Method: HEK-293 or COS-7 cells stably expressing hKCa2.1, rKCa2.2, and hKCa2.3 have been described previously (Sankaranarayanan et al., 2009). Cells were held at −80 mV and KCa currents elicited by dialysis with a K^+ aspartate based internal containing 250 nM free Ca^2+ (pH 7.2, 290 mOsm, pipette resistance 1.5 MΩ). To reduce currents from native chloride channels, Na^+ aspartate Ringer was used as an external solution. KCa2 currents were recorded with 200-ms voltage ramps from −120 to +40 mV applied every 10 s, and the fold increase of slope conductance at −80 mV by drug was taken as a measure of channel activation. Data analysis, fitting, and plotting were performed with IGOR-Pro (Wavemetrics, Lake Oswego, Oreg., USA) and Origin 9.0 (OriginLab, Northampton, Mass., USA).

Nav1.3 = Nav1.3 (Homo sapiens (Human), UniProt Q9NY46); test: Voltage-clamp, Nav1.3; type: cell-based; details: read-out: EC50 or IC50, Nav1.3

Nc1nc2ccc(SC(F)(F)F)cc2s1 [SKA-19, 6-((trifluoromethyl)thio)benzo[d]thiazol-2-amine]
IC50 (Nav1.1): 6.9 ± 4.9 µM
IC50 (Kv2.1): 22.3 ± 5.6 µM
block of Nav1.5 (Nav1.5): low micromolar range
IC50 (Nav1.5; read-out: EC50 or IC50, Nav1.5): 5.8 ± 2.6 µM
ED50 (MES-induced seizures; ip, 1 h time point): 1.6 mg/kg
ED50 (MES-induced seizures; oral (SKA-19: 4 h time point)): 2.33 mg/kg
protective index PI (TD50/ED50) (MES-induced seizures; i.p.): 8.9
protective index PI (TD50/ED50) (MES-induced seizures; oral): ~33 and 33.2
protection from MES induced seizures, initial screen (MES-induced seizures; oral 30 mg/kg, 0.25, 0.5, 1, 2 and 4 h): fully protected
block of Nav1.7 (Nav1.7): low micromolar range
death in the scMET test ([1]; 300 mg/kg): one animal treated with 300 mg/kg died
protection in the scMET test ([1]; 30 and 100 mg/kg): did not provide any protection
activity in the scMET test ([1]; mouse, in vivo): no significant activity
ED50 (sound-induced seizures): 2.15 mg/kg
EC50 (KCa2.1; 250 nM free intracellular Ca2+, read-out: EC50 or IC50, KCa2.1): > 100 µM
effect on KCa2.1 currents (KCa2.1; 100 and 200 μM): very weak effects
IC50 (Nav1.3): 2.2 ± 1.1 µM
